# Source: PubChem BioAssay AID1963973 (Molecular Pharmacology Branch, DTP, NCI, 2024)
# Test system: 883617-216-R-J1-PDC tumor spheroids, viability
# Assay: Anticancer human tumor 883617-216-R-J1-PDC patient-derived bladder carcinoma cell line growth inhibition [PI3K]
# Settings: spheroids with HUVEC and MSC; for IC50: curve of first compound; for viability, T/C: stronger effect = lower value
# Procedure, shortened: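 Spheroid viability read-out. Co-cultures contained the tumor line plus HUVEC and human MSCs. Each agent was paired with a PI3K inhibitor (inavolisib, alpelisib, duvelisib, copanlisib) across half-log dilutions starting at clinical Cmax, or at 10 microM when Cmax was unknown.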
# [1] = second compound 0.0316 µM, first compound 0.0316 µM
# [2] = second compound 0.0316 µM, first compound 0.1 µM
# [3] = second compound 0.0316 µM, first compound 0.316 µM
# [4] = second compound 0.0316 µM, first compound 1 µM
# [5] = second compound 0.0316 µM, first compound 3.16 µM
# [6] = second compound 0.0316 µM, first compound 10 µM
# [7] = second compound 0.1 µM, first compound 0.0316 µM
# [8] = second compound 0.1 µM, first compound 0.1 µM
# [9] = second compound 0.1 µM, first compound 0.316 µM
# [10] = second compound 0.1 µM, first compound 1 µM
# [11] = second compound 0.1 µM, first compound 3.16 µM
# [12] = second compound 0.1 µM, first compound 10 µM
# [13] = second compound 0.316 µM, first compound 0.0316 µM
# [14] = second compound 0.316 µM, first compound 0.1 µM
# [15] = second compound 0.316 µM, first compound 0.316 µM
# [16] = second compound 0.316 µM, first compound 1 µM
# [17] = second compound 0.316 µM, first compound 3.16 µM
# [18] = second compound 0.316 µM, first compound 10 µM
# [19] = second compound 1 µM, first compound 0.0316 µM
# [20] = second compound 1 µM, first compound 0.1 µM
# [21] = second compound 1 µM, first compound 0.316 µM
# [22] = second compound 1 µM, first compound 1 µM
# [23] = second compound 1 µM, first compound 3.16 µM
# [24] = second compound 1 µM, first compound 10 µM
# [25] = second compound 3.16 µM, first compound 0.0316 µM
# [26] = second compound 3.16 µM, first compound 0.1 µM
# [27] = second compound 3.16 µM, first compound 0.316 µM
# [28] = second compound 3.16 µM, first compound 1 µM
# [29] = second compound 3.16 µM, first compound 3.16 µM
# [30] = second compound 3.16 µM, first compound 10 µM
# [31] = second compound 10 µM, first compound 0.0316 µM
# [32] = second compound 10 µM, first compound 0.1 µM
# [33] = second compound 10 µM, first compound 0.316 µM
# [34] = second compound 10 µM, first compound 1 µM
# [35] = second compound 10 µM, first compound 3.16 µM
# [36] = second compound 10 µM, first compound 10 µM
# 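Note: spheroids exposed to agents for 7 days before the viability read.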
compound,measurement,setting,value
C#Cc1c(F)ccc2cc(O)cc(-c3ncc4c(N5CC6CCC(C5)N6)nc(OCC56CCCN5CC(F)C6)nc4c3F)c12 (stereo not given) + Cc1nc(NC(=O)N2CCCC2C(N)=O)sc1-c1ccnc(C(C)(C)C(F)(F)F)c1,IC50,second compound 0.0316 µM,> 10000 nM
same,IC50,second compound 0.1 µM,6560 nM
same,IC50,second compound 0.316 µM,< 31.6 nM
same,IC50,second compound 1 µM,< 31.6 nM
same,IC50,second compound 3.16 µM,< 31.6 nM
same,IC50,second compound 10 µM,< 31.6 nM
same,"viability, T/C",[1],81.1%
same,"viability, T/C",[2],89.1%
same,"viability, T/C",[3],77.6%
same,"viability, T/C",[4],80.9%
same,"viability, T/C",[5],79.7%
same,"viability, T/C",[6],57.5%
same,"viability, T/C",[7],69.8%
same,"viability, T/C",[8],66.5%
same,"viability, T/C",[9],76.8%
same,"viability, T/C",[10],74.2%
same,"viability, T/C",[11],63.1%
same,"viability, T/C",[12],41.1%
same,"viability, T/C",[13],53.8%
same,"viability, T/C",[14],47.3%
same,"viability, T/C",[15],45.5%
same,"viability, T/C",[16],46.5%
same,"viability, T/C",[17],43.7%
same,"viability, T/C",[18],24.7%
same,"viability, T/C",[19],28.2%
same,"viability, T/C",[20],28.3%
same,"viability, T/C",[21],26.8%
same,"viability, T/C",[22],29%
same,"viability, T/C",[23],24.7%
same,"viability, T/C",[24],19.9%
same,"viability, T/C",[25],15.2%
same,"viability, T/C",[26],13.1%
same,"viability, T/C",[27],12.6%
same,"viability, T/C",[28],14.5%
same,"viability, T/C",[29],15.3%
same,"viability, T/C",[30],8.2%
same,"viability, T/C",[31],7.88%
same,"viability, T/C",[32],7.4%
same,"viability, T/C",[33],5.56%
same,"viability, T/C",[34],7.83%
same,"viability, T/C",[35],5.24%
same,"viability, T/C",[36],0.61%
C=CC(=O)N1CCN(c2nc(=O)n(-c3c(C)ccnc3C(C)C)c3nc(-c4c(O)cccc4F)c(F)cc23)C(C)C1 (stereo not given) + Cc1nc(NC(=O)N2CCCC2C(N)=O)sc1-c1ccnc(C(C)(C)C(F)(F)F)c1,IC50,second compound 0.0316 µM,< 31.6 nM
same,IC50,second compound 0.1 µM,< 31.6 nM
same,IC50,second compound 0.316 µM,< 31.6 nM
same,IC50,second compound 1 µM,< 31.6 nM
same,IC50,second compound 3.16 µM,< 31.6 nM
same,IC50,second compound 10 µM,< 31.6 nM
same,"viability, T/C",[1],56.5%
same,"viability, T/C",[2],45.7%
same,"viability, T/C",[3],44.1%
same,"viability, T/C",[4],51.8%
same,"viability, T/C",[5],70.4%
same,"viability, T/C",[6],60.9%
same,"viability, T/C",[7],37.3%
same,"viability, T/C",[8],35.9%
same,"viability, T/C",[9],40.3%
same,"viability, T/C",[10],34.9%
same,"viability, T/C",[11],52.9%
same,"viability, T/C",[12],46.2%
same,"viability, T/C",[13],32.5%
same,"viability, T/C",[14],22.4%
same,"viability, T/C",[15],25.6%
same,"viability, T/C",[16],27.5%
same,"viability, T/C",[17],34.6%
same,"viability, T/C",[18],35%
same,"viability, T/C",[19],14.7%
same,"viability, T/C",[20],12.8%
same,"viability, T/C",[21],13.9%
same,"viability, T/C",[22],17.1%
same,"viability, T/C",[23],26.2%
same,"viability, T/C",[24],20.5%
same,"viability, T/C",[25],10.3%
same,"viability, T/C",[26],6.71%
same,"viability, T/C",[27],6.68%
same,"viability, T/C",[28],9.84%
same,"viability, T/C",[29],12.8%
same,"viability, T/C",[30],11.2%
same,"viability, T/C",[31],3.61%
same,"viability, T/C",[32],2.75%
same,"viability, T/C",[33],3.18%
same,"viability, T/C",[34],4.91%
same,"viability, T/C",[35],7.96%
same,"viability, T/C",[36],6.43%
CC(Cn1ccc(-c2ccc(C#N)c(Cl)c2)n1)NC(=O)c1cc(C(C)O)[nH]n1 (stereo not given) + Cc1nc(NC(=O)N2CCCC2C(N)=O)sc1-c1ccnc(C(C)(C)C(F)(F)F)c1,IC50,second compound 0.0316 µM,> 10000 nM
same,IC50,second compound 0.1 µM,> 10000 nM
same,IC50,second compound 0.316 µM,< 31.6 nM
same,IC50,second compound 1 µM,< 31.6 nM
same,IC50,second compound 3.16 µM,< 31.6 nM
same,IC50,second compound 10 µM,< 31.6 nM
same,"viability, T/C",[1],86.2%
same,"viability, T/C",[2],77.4%
same,"viability, T/C",[3],85.3%
same,"viability, T/C",[4],101%
same,"viability, T/C",[5],100%
same,"viability, T/C",[6],93.8%
same,"viability, T/C",[7],73.8%
same,"viability, T/C",[8],60.6%
same,"viability, T/C",[9],67.9%
same,"viability, T/C",[10],78.9%
same,"viability, T/C",[11],70%
same,"viability, T/C",[12],67.4%
same,"viability, T/C",[13],45.4%
same,"viability, T/C",[14],40.1%
same,"viability, T/C",[15],50.6%
same,"viability, T/C",[16],42.5%
same,"viability, T/C",[17],55%
same,"viability, T/C",[18],55.9%
same,"viability, T/C",[19],30.8%
same,"viability, T/C",[20],31%
same,"viability, T/C",[21],28.8%
same,"viability, T/C",[22],24.7%
same,"viability, T/C",[23],28.8%
same,"viability, T/C",[24],28%
same,"viability, T/C",[25],13%
same,"viability, T/C",[26],15.4%
same,"viability, T/C",[27],15.5%
same,"viability, T/C",[28],15.3%
same,"viability, T/C",[29],16.2%
same,"viability, T/C",[30],15.3%
same,"viability, T/C",[31],6.67%
same,"viability, T/C",[32],7.22%
same,"viability, T/C",[33],6.48%
same,"viability, T/C",[34],6.6%
same,"viability, T/C",[35],9.29%
same,"viability, T/C",[36],7.26%
CC1(C)CCC(Nc2ncc(C(F)(F)F)c(-c3c[nH]c4c(P(C)(C)=O)c(C#N)ccc34)n2)CN1 (stereo not given) + Cc1nc(NC(=O)N2CCCC2C(N)=O)sc1-c1ccnc(C(C)(C)C(F)(F)F)c1,IC50,second compound 0.0316 µM,< 31.6 nM
same,IC50,second compound 0.1 µM,< 31.6 nM
same,IC50,second compound 0.316 µM,< 31.6 nM
same,IC50,second compound 1 µM,< 31.6 nM
same,IC50,second compound 3.16 µM,< 31.6 nM
same,IC50,second compound 10 µM,< 31.6 nM
same,"viability, T/C",[1],35%
same,"viability, T/C",[2],25.2%
same,"viability, T/C",[3],21.7%
same,"viability, T/C",[4],18.4%
same,"viability, T/C",[5],7.32%
same,"viability, T/C",[6],0.34%
same,"viability, T/C",[7],27.1%
same,"viability, T/C",[8],23.6%
same,"viability, T/C",[9],25.7%
same,"viability, T/C",[10],20.1%
same,"viability, T/C",[11],5.12%
same,"viability, T/C",[12],0.15%
same,"viability, T/C",[13],23.2%
same,"viability, T/C",[14],25.2%
same,"viability, T/C",[15],23.2%
same,"viability, T/C",[16],12.9%
same,"viability, T/C",[17],4.57%
same,"viability, T/C",[18],0.17%
same,"viability, T/C",[19],18.1%
same,"viability, T/C",[20],18.6%
same,"viability, T/C",[21],14.2%
same,"viability, T/C",[22],19.3%
same,"viability, T/C",[23],3.08%
same,"viability, T/C",[24],0.12%
same,"viability, T/C",[25],11.7%
same,"viability, T/C",[26],11.7%
same,"viability, T/C",[27],8.82%
same,"viability, T/C",[28],11.7%
same,"viability, T/C",[29],1.63%
same,"viability, T/C",[30],0.09%
same,"viability, T/C",[31],5.1%
same,"viability, T/C",[32],4.07%
same,"viability, T/C",[33],4.35%
same,"viability, T/C",[34],3.57%
same,"viability, T/C",[35],0.59%
same,"viability, T/C",[36],0.16%
Cn1nccc1Nc1nccc(-c2ccn(C(CO)c3ccc(Cl)c(F)c3)c(=O)c2)n1 (stereo not given) + Cc1nc(NC(=O)N2CCCC2C(N)=O)sc1-c1ccnc(C(C)(C)C(F)(F)F)c1,IC50,second compound 0.0316 µM,9040 nM
same,IC50,second compound 0.1 µM,2550 nM
same,IC50,second compound 0.316 µM,< 31.6 nM
same,IC50,second compound 1 µM,< 31.6 nM
same,IC50,second compound 3.16 µM,< 31.6 nM
same,IC50,second compound 10 µM,< 31.6 nM
same,"viability, T/C",[1],82.5%
same,"viability, T/C",[2],79.8%
same,"viability, T/C",[3],68.7%
same,"viability, T/C",[4],68.3%
same,"viability, T/C",[5],68%
same,"viability, T/C",[6],46.3%
same,"viability, T/C",[7],69.7%
same,"viability, T/C",[8],72.5%
same,"viability, T/C",[9],66.7%
same,"viability, T/C",[10],56%
same,"viability, T/C",[11],48.7%
same,"viability, T/C",[12],33.2%
same,"viability, T/C",[13],47.3%
same,"viability, T/C",[14],44.1%
same,"viability, T/C",[15],43.9%
same,"viability, T/C",[16],34.5%
same,"viability, T/C",[17],30.8%
same,"viability, T/C",[18],24.4%
same,"viability, T/C",[19],26.2%
same,"viability, T/C",[20],25.7%
same,"viability, T/C",[21],26.3%
same,"viability, T/C",[22],20.5%
same,"viability, T/C",[23],15.1%
same,"viability, T/C",[24],12.8%
same,"viability, T/C",[25],13.3%
same,"viability, T/C",[26],12.2%
same,"viability, T/C",[27],9.5%
same,"viability, T/C",[28],9.97%
same,"viability, T/C",[29],8.33%
same,"viability, T/C",[30],7.21%
same,"viability, T/C",[31],5.74%
same,"viability, T/C",[32],5.78%
same,"viability, T/C",[33],4.59%
same,"viability, T/C",[34],4.62%
same,"viability, T/C",[35],3.21%
same,"viability, T/C",[36],1.26%
